Experimental data from the supplement of paper PMC10307832.

How the values were obtained:
Experiment in all cases: relative viability (nuclei count vs DMSO), 5 days (fraction); higher = more cells survive
XMD8-85 + Alpelisib = compound: CN1CCN(CC1)C2=CC(=C(C=C2)NC3=NC=C4C(=N3)N(C5=CC=CC=C5C(=O)N4C)C)OC [XMD8-85] + Cc1nc(NC(=O)N2CCC[C@H]2C(N)=O)sc1-c1ccnc(C(C)(C)C(F)(F)F)c1 [Alpelisib] (partner 2 µM)
Outline: (§1)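 Lung cancer cell lines were pin-tool dosed in 1536-well plates on the day after seeding, with either a lone drug or a fixed anchor-drug dose plus five library-drug doses (not always all listed) in √10 steps. Nuclei were counted on 4× images after 5 days. Relative viability is the ratio of treated-well to vehicle-well nuclei counts, with each value a median of duplicate plates.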

4EGI-1 + Linsitinib = compound: O=C(O)C(Cc1ccccc1[N+](=O)[O-])=NNc1nc(-c2ccc(Cl)c(Cl)c2)cs1 (mixture of isomers) [4EGI-1] + C[C@]1(O)C[C@@H](c2nc(-c3ccc4ccc(-c5ccccc5)nc4c3)c3c(N)nccn32)C1 [Linsitinib] (partner 1 µM)
Outline: as §1

4EGI-1 + Bortezomib = compound: O=C(O)C(Cc1ccccc1[N+](=O)[O-])=NNc1nc(-c2ccc(Cl)c(Cl)c2)cs1 (mixture of isomers) [4EGI-1] + CC(C)C[C@H](NC(=O)[C@H](Cc1ccccc1)NC(=O)c1cnccn1)B(O)O [Bortezomib] (partner 0.002 µM)
Outline: as §1

XMD8-85 + Olaparib = compound: CN1CCN(CC1)C2=CC(=C(C=C2)NC3=NC=C4C(=N3)N(C5=CC=CC=C5C(=O)N4C)C)OC [XMD8-85] + O=C(c1cc(Cc2n[nH]c(=O)c3ccccc23)ccc1F)N1CCN(C(=O)C2CC2)CC1 [Olaparib] (partner 8 µM)
Outline: as §1

Row | Cell Line | relative viability (XMD8-85 + Alpelisib; first compound 0.08 µM) | relative viability (XMD8-85 + Alpelisib; first compound 0.253 µM) | relative viability (XMD8-85 + Alpelisib; first compound 0.8 µM) | relative viability (XMD8-85 + Alpelisib; first compound 2.53 µM) | relative viability (XMD8-85 + Alpelisib; first compound 8 µM) | relative viability (4EGI-1 + Linsitinib; first compound 0.5 µM) | relative viability (4EGI-1 + Linsitinib; first compound 1.581 µM) | relative viability (4EGI-1 + Linsitinib; first compound 5 µM) | relative viability (4EGI-1 + Linsitinib; first compound 15.81 µM) | relative viability (4EGI-1 + Linsitinib; first compound 50 µM) | relative viability (4EGI-1 + Bortezomib; first compound 0.5 µM) | relative viability (4EGI-1 + Bortezomib; first compound 1.581 µM) | relative viability (4EGI-1 + Bortezomib; first compound 5 µM) | relative viability (4EGI-1 + Bortezomib; first compound 15.81 µM) | relative viability (4EGI-1 + Bortezomib; first compound 50 µM) | relative viability (XMD8-85 + Olaparib; first compound 0.08 µM) | relative viability (XMD8-85 + Olaparib; first compound 0.253 µM) | relative viability (XMD8-85 + Olaparib; first compound 0.8 µM) | relative viability (XMD8-85 + Olaparib; first compound 2.53 µM) | relative viability (XMD8-85 + Olaparib; first compound 8 µM)
1 | NCI-H1915 | 1.08 | 1.09 | 1.07 | 1.05 | 0.962 | 1.12 | 0.779 | 1.06 | 1.07 | 0.861 | 1 | 0.693 | 1.09 | 1.01 | 0.687 | 0.291 | 0.263 | 0.252 | 0.222 | 0.185
2 | LXF-289 | 1.02 | 0.964 | 1.01 | 1.08 | 0.939 | 0.984 | 0.96 | 0.921 | 0.935 | 0.673 | 1.06 | 1.06 | 1 | 0.876 | 0.443 | 0.972 | 1.08 | 1.09 | 0.94 | 0.915
3 | H3255 | 0.586 | 0.745 | 0.68 | 0.776 | 0.406 | 1.09 | 0.697 | 0.994 | 0.584 | 0.857 | 0.843 | 0.663 | 0.796 | 0.576 | 0.48 | 0.581 | 0.603 | 0.512 | 0.504 | 0.369
4 | EBC-1 | 0.871 | 0.94 |  | 0.694 | 0.336 | 0.992 | 1 | 0.995 | 0.652 | 1.04 | 0.668 | 0.547 | 0.704 | 0.52 | 0.181 | 0.649 | 0.693 | 0.679 | 0.567 | 0.346
5 | NCI-H2087 | 1.18 | 1.05 | 1.21 | 1.35 | 0.808 | 0.983 | 0.983 | 1 | 0.66 | 0.307 | 1.04 | 0.782 | 0.882 | 0.726 | 0.335 | 0.527 | 0.688 | 0.7 |  | 0.533
6 | EMC-BAC-2 | 0.74 | 0.739 | 0.752 | 0.733 | 0.72 | 0.86 | 0.748 | 0.791 | 0.777 | 0.736 | 1.17 | 1.02 | 1.13 | 1.05 | 0.88 | 0.498 | 0.465 | 0.487 | 0.477 | 0.417
7 | NCI-H2126 | 0.628 | 0.767 | 0.814 | 0.776 | 0.724 | 0.734 | 0.693 | 0.717 | 0.652 | 0.673 | 1.13 | 1.04 | 1.07 | 1 | 1.11 | 0.958 | 0.897 | 0.954 | 0.889 | 0.94
8 | NCI-H441 | 0.837 | 1.03 | 0.693 | 0.714 | 0.698 | 0.77 | 0.492 | 0.798 | 0.469 | 0.196 | 0.634 | 0.517 | 0.659 | 0.492 | 0.441 | 0.405 | 0.553 | 0.421 | 0.538 | 0.371
